Experimental data reported in ChEMBL document CHEMBL1201862, “PubChem BioAssay data set” (2004).
The source made the active and inactive calls.

Experiments:
Format in all cases: functional
[1] = nonselective inhibitors of cellular cAMP signaling, dose response, counter-screen for MC4R biased antagonist project, cell-based, TR-FRET cAMP detection (AID 602305);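 note: U2OS cells stimulated with forskolin near its EC80 as the cAMP inducer; potency is for inhibition of forskolin-stimulated cAMP signaling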
Melanocortin receptor 4 = Melanocortin receptor 4 (Homo sapiens, UniProt P32245); experiment: MC4R antagonist potency on cAMP, dose response, cell-based, TR-FRET, biased antagonists (AID 602298);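 note: antagonist potency against agonist-stimulated cAMP production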
[2] = biological target: Multidrug resistance protein CDR2 (Candida albicans (strain SC5314 / ATCC MYA-2876) (Yeast), UniProt P78595); experiment: CaCDR2 efflux pump inhibitors in yeast, dose response, S. cerevisiae AD1-8u, singleplex, Cherry Pick1 hits (AID 588604)
Aurora kinase A = Aurora kinase A (Homo sapiens, UniProt O14965);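 note: value from the Navigating the Kinome kinase panel profiling, panel entry STK6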
[3] = biological target: Vascular endothelial growth factor receptor 2 (Homo sapiens, UniProt P35968)
Aurora kinase B = Aurora kinase B (Homo sapiens, UniProt Q96GD4)
[4] = biological target: Cyclin-dependent kinase 7 (Homo sapiens, UniProt P50613);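 note: value comes from a kinome-wide kinase profiling panel in which CDK7 is one member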
[5] = biological target: Serine/threonine-protein kinase Chk1 (Homo sapiens, UniProt O14757);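 note: measured as one member of a kinome-wide kinase profiling panel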
[6] = biological target: Dual specificity mitogen-activated protein kinase kinase 2 (Homo sapiens, UniProt P36507); experiment: Navigating the Kinome. Panel member name: MAP2K2
[7] = biological target: Leucine-rich repeat serine/threonine-protein kinase 2 (Homo sapiens, UniProt Q5S007);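 note: value from a broad kinome-wide panel profiling study in which LRRK2 was one of the kinases tested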
[8] = biological target: Cyclin-dependent kinase 8 (Homo sapiens, UniProt P49336); experiment: Navigating the Kinome. Panel member name: CDK8
[9] = biological target: Glycogen synthase kinase-3 beta (Homo sapiens, UniProt P49841);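 note: value comes from a broad kinome profiling panel, with GSK3B as the panel member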
[10] = biological target: Fibroblast growth factor receptor 1 (Homo sapiens, UniProt P11362)
[11] = biological target: BDNF/NT-3 growth factors receptor (Homo sapiens, UniProt Q16620);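 note: NTRK2 measured as one member of a broad kinome-wide kinase profiling panel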
[12] = biological target: Glycogen synthase kinase-3 alpha (Homo sapiens, UniProt P49840);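 note: GSK3A result taken from a broad kinome-wide kinase panel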
[13] = biological target: Cyclin-dependent kinase 5 (Homo sapiens, UniProt Q00535);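 note: CDK5 measured as one member of a kinase profiling panel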
[14] = biological target: Mitogen-activated protein kinase 9 (Homo sapiens, UniProt P45984);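 note: value from a kinome panel profiling assay, MAPK9 panel entry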
[15] = biological target: RAC-alpha serine/threonine-protein kinase (Homo sapiens, UniProt P31749);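 note: AKT1 affinity measured as one member of a kinome-wide kinase profiling panel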
[16] = biological target: Dual specificity tyrosine-phosphorylation-regulated kinase 1B (Homo sapiens, UniProt Q9Y463); experiment: Navigating the Kinome. Panel member name: DYRK1B
[17] = biological target: Calcium/calmodulin-dependent protein kinase type II subunit alpha (Homo sapiens, UniProt Q9UQM7); experiment: Navigating the Kinome. Panel member name: CAMK2A
[18] = biological target: Dual specificity protein kinase CLK4 (Homo sapiens, UniProt Q9HAZ1)
[19] = biological target: Serine/threonine-protein kinase Nek2 (Homo sapiens, UniProt P51955)
[20] = biological target: 5'-AMP-activated protein kinase catalytic subunit alpha-1 (Homo sapiens, UniProt Q13131)
[21] = biological target: Dual specificity tyrosine-phosphorylation-regulated kinase 1A (Homo sapiens, UniProt Q13627);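 note: measured against DYRK1A as one member of a broad kinome profiling panel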
[22] = biological target: Casein kinase I isoform alpha (Homo sapiens, UniProt P48729)
[23] = biological target: Serine/threonine-protein kinase PLK1 (Homo sapiens, UniProt P53350);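 note: PLK1 measured as one member of a kinome-wide profiling panel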
[24] = biological target: Dual specificity protein kinase CLK2 (Homo sapiens, UniProt P49760)
[25] = biological target: Ribosomal protein S6 kinase alpha-3 (Homo sapiens, UniProt P51812);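 note: measured within a kinome-wide profiling panel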
[26] = biological target: Serine/threonine-protein kinase PLK3 (Homo sapiens, UniProt Q9H4B4)
Activated CDC42 kinase 1 = Activated CDC42 kinase 1 (Homo sapiens, UniProt Q07912); experiment: Navigating the Kinome. Panel member name: ACK1
[27] = biological target: Macrophage-stimulating protein receptor (Homo sapiens, UniProt Q04912); experiment: Navigating the Kinome. Panel member name: MST1R
[28] = biological target: RAC-gamma serine/threonine-protein kinase (Homo sapiens, UniProt Q9Y243)
[29] = biological target: Serine/threonine-protein kinase pim-3 (Homo sapiens, UniProt Q86V86);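 note: value obtained as one member of a broad kinase panel profiling effort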
[30] = biological target: Serine/threonine-protein kinase D3 (Homo sapiens, UniProt O94806);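 note: determined within a kinase panel screen, with PRKCN as the panel member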
[31] = biological target: Mitogen-activated protein kinase 14 (Homo sapiens, UniProt Q16539);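 note: part of a kinome-wide panel, MAPK14 entry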
[32] = biological target: Inhibitor of nuclear factor kappa-B kinase subunit epsilon (Homo sapiens, UniProt Q14164); experiment: Navigating the Kinome. Panel member name: IKBKE
[33] = biological target: Serine/threonine-protein kinase TBK1 (Homo sapiens, UniProt Q9UHD2); experiment: Navigating the Kinome. Panel member name: TBK1
[34] = biological target: Dual specificity mitogen-activated protein kinase kinase 1 (Homo sapiens, UniProt Q02750); experiment: Navigating the Kinome. Panel member name: MAP2K1
[35] = biological target: Rho-associated protein kinase 1 (Homo sapiens, UniProt Q13464);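 note: measured within a broad kinome-wide panel profiling many kinases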
LIM domain kinase 1 = LIM domain kinase 1 (Homo sapiens, UniProt P53667); experiment: Navigating the Kinome. Panel member name: LIMK1
[36] = biological target: G protein-coupled receptor kinase 5 (Homo sapiens, UniProt P34947); experiment: Navigating the Kinome. Panel member name: GPRK5
[37] = biological target: Serine/threonine-protein kinase PAK 4 (Homo sapiens, UniProt O96013);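 note: value obtained within a kinome profiling panel in which PAK4 was one of the panel members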
[38] = biological target: Serine/threonine-protein kinase pim-1 (Homo sapiens, UniProt P11309)
[39] = biological target: cAMP-dependent protein kinase catalytic subunit PRKX (Homo sapiens, UniProt P51817)
[40] = biological target: Hepatocyte growth factor receptor (Homo sapiens, UniProt P08581);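 note: kinase panel profiling across the kinome, with MET as the panel member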
[41] = biological target: cAMP-dependent protein kinase catalytic subunit alpha (Homo sapiens, UniProt P17612)
[42] = biological target: High affinity nerve growth factor receptor (Homo sapiens, UniProt P04629);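 note: NTRK1 tested as one member of a kinome-wide profiling panel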
[43] = biological target: Serine/threonine-protein kinase TAO1 (Homo sapiens, UniProt Q7L7X3)

Sequence of Dual specificity protein kinase CLK4 (Q9HAZ1 whole entry): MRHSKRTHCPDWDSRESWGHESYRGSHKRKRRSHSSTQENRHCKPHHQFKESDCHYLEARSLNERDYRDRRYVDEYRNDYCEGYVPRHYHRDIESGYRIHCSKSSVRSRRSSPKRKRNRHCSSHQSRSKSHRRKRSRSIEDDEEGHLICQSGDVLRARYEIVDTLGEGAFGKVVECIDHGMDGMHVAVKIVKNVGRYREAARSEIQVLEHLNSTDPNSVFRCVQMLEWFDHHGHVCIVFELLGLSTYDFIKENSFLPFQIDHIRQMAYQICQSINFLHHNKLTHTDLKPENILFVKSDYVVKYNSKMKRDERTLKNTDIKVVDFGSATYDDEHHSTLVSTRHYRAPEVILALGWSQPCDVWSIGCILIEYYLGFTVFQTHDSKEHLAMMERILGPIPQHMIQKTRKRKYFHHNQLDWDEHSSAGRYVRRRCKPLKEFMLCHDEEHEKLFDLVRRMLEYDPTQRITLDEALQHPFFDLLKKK
Sequence of Fibroblast growth factor receptor 1 (P11362 whole entry): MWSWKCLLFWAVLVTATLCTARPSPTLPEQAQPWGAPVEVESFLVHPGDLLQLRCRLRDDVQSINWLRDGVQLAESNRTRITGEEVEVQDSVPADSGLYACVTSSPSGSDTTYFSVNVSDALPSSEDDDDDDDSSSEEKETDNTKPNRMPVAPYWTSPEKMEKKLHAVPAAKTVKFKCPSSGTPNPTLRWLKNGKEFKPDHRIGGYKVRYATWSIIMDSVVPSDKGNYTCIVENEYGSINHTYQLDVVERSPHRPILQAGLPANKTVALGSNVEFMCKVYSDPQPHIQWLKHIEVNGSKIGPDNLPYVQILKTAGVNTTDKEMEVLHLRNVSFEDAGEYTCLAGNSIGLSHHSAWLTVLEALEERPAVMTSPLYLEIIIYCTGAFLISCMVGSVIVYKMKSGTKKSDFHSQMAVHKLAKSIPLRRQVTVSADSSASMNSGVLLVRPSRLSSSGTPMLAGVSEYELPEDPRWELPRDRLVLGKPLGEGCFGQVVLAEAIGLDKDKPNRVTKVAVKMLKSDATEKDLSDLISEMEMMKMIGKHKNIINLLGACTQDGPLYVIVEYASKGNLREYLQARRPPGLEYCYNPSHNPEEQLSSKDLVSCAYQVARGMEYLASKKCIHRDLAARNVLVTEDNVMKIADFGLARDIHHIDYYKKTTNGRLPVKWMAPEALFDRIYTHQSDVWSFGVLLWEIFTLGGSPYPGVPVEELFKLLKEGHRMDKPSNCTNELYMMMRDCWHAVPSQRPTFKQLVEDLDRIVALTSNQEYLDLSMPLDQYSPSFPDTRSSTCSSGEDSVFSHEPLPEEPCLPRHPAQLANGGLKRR
Sequence of Glycogen synthase kinase-3 beta (P49841 whole entry): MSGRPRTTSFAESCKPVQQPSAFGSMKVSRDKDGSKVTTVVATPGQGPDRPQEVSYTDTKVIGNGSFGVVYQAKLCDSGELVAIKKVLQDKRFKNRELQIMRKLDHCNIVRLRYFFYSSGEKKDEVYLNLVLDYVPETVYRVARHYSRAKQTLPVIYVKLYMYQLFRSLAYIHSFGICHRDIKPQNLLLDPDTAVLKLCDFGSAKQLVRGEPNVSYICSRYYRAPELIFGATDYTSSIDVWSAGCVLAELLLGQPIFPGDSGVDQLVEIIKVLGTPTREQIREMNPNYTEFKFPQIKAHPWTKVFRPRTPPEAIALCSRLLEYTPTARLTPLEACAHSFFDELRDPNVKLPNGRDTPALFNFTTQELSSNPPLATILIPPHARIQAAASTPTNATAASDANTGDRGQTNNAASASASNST
Sequence of Aurora kinase B (Q96GD4 whole entry): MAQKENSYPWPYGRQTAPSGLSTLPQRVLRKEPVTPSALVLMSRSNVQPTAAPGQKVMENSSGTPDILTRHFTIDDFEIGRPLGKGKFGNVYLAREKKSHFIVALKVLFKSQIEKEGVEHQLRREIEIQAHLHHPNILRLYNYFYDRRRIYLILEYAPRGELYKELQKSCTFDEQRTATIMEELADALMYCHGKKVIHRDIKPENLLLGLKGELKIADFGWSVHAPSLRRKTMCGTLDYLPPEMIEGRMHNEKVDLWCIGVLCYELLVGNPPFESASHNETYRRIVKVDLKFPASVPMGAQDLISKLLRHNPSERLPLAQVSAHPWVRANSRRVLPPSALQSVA
Sequence of Cyclin-dependent kinase 5 (Q00535 whole entry): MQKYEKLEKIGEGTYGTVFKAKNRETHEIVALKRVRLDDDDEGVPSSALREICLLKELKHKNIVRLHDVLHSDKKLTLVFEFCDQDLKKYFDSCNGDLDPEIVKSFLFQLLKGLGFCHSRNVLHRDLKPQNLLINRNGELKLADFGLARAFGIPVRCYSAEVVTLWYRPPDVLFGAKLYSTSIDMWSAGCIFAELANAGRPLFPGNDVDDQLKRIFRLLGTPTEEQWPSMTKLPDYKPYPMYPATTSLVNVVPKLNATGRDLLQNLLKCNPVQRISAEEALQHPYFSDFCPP
Sequence of Cyclin-dependent kinase 8 (P49336 whole entry): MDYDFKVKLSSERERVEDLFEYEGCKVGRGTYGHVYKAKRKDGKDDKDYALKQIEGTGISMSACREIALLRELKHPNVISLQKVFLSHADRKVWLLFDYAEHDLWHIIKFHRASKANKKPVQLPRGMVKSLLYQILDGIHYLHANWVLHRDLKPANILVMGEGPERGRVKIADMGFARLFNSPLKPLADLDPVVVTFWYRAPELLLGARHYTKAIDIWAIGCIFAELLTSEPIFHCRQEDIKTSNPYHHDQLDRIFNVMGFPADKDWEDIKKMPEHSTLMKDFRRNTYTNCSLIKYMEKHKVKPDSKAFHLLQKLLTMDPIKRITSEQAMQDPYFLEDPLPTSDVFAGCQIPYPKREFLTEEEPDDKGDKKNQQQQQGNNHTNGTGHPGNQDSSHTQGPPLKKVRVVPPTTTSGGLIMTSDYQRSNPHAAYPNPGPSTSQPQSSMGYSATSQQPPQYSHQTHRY
Sequence of Multidrug resistance protein CDR2 (P78595 whole entry): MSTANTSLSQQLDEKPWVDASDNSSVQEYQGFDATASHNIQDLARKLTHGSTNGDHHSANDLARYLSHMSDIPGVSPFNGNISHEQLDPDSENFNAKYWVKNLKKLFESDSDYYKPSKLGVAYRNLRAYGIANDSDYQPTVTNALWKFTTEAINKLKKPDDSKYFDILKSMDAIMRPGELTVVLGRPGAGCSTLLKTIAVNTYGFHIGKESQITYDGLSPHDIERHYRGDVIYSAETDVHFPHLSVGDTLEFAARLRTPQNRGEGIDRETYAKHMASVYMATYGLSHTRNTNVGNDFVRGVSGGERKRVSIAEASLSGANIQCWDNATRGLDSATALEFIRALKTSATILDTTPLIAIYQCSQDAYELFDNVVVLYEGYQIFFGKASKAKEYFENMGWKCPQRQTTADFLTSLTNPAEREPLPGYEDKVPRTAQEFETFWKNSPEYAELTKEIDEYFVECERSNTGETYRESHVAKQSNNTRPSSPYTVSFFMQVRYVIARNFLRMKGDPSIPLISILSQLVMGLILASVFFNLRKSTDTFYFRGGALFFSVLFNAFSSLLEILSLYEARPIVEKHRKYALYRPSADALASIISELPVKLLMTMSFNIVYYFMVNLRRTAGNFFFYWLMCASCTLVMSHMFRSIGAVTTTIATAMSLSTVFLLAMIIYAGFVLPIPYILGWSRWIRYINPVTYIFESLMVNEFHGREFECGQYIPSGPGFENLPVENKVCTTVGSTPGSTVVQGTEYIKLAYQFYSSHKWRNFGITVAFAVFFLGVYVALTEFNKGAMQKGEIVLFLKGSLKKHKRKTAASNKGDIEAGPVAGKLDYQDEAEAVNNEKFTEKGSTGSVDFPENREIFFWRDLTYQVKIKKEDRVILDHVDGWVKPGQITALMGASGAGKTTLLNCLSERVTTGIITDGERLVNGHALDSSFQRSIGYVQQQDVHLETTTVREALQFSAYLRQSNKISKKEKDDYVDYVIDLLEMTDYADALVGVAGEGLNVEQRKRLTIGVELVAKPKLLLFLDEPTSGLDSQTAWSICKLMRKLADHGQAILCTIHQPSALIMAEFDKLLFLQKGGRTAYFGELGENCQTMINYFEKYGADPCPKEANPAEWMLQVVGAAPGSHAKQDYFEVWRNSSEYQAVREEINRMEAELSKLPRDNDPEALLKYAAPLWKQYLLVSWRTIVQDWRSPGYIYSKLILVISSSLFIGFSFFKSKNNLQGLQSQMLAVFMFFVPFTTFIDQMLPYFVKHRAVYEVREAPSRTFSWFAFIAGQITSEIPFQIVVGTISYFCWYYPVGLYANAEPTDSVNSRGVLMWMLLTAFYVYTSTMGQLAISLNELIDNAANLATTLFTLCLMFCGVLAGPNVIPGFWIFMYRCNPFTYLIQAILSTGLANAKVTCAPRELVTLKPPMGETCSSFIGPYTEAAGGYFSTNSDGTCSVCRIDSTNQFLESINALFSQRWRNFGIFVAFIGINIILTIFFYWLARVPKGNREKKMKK
Sequence of Serine/threonine-protein kinase Chk1 (O14757 whole entry): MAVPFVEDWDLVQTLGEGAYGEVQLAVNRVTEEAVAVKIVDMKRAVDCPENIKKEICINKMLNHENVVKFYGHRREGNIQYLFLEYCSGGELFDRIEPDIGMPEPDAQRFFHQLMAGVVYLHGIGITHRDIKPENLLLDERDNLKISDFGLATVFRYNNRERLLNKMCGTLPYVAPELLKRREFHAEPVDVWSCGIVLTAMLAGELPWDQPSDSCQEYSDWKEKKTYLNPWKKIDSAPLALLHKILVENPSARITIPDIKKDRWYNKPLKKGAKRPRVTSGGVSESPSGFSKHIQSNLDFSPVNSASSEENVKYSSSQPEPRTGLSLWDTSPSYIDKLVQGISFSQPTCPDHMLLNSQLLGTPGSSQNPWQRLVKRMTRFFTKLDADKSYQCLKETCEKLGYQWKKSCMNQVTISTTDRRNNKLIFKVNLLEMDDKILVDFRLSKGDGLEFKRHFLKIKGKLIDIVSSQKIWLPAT

O=C(CNC(=O)C(c1ccccc1)c1ccccc1)OCc1ccccc1
IC50 [1]: > 64.6 µM (inactive)
IC50 (Melanocortin receptor 4): > 64.6 µM (inactive)

O=C(N=C(NC(=O)c1ccccc1)Nc1nc2ccccc2o1)c1ccccc1
EC50 [2]: 1.53 µM (active)

Nc1nc(SCC(=O)Nc2ncccn2)nc2nc[nH]c12
Ki (Aurora kinase A): > 2 µM (inactive)
Ki [3]: 3.98 µM (active)
Ki (Aurora kinase B): 0.0794 µM (active)

O=C1NCc2c(Br)cccc21
Ki [4]: > 79.4 µM (inactive)
Ki [5]: > 79.4 µM (inactive)
Ki [6]: > 79.4 µM (inactive)
Ki [7]: 31.6 µM (active)
Ki [8]: > 79.4 µM (inactive)
Ki [9]: > 79.4 µM (inactive)
Ki [10]: > 63.1 µM (inactive)
Ki [11]: > 79.4 µM (inactive)
Ki [12]: > 79.4 µM (inactive)
Ki [13]: 63.1 µM (active)
Ki [14]: > 79.4 µM (inactive)
Ki [15]: > 79.4 µM (inactive)
Ki [16]: 31.6 µM (active)
Ki [17]: > 79.4 µM (inactive)
Ki [18]: 6.31 µM (active)
Ki [19]: > 63.1 µM (inactive)
Ki [20]: > 63.1 µM (inactive)
Ki [21]: 20 µM (active)
Ki [22]: 63.1 µM (active)
Ki [23]: > 79.4 µM (inactive)
Ki [24]: > 79.4 µM (inactive)
Ki [25]: > 79.4 µM (inactive)
Ki [26]: > 79.4 µM (inactive)
Ki (Activated CDC42 kinase 1): > 79.4 µM (inactive)
Ki [27]: > 79.4 µM (inactive)
Ki [28]: > 100 µM (inactive)
Ki [29]: > 79.4 µM (inactive)
Ki [30]: > 79.4 µM (inactive)
Ki [31]: > 79.4 µM (inactive)
Ki [32]: > 63.1 µM (inactive)
Ki [33]: > 63.1 µM (inactive)
Ki [34]: > 63.1 µM (inactive)
Ki [35]: 20 µM (active)
Ki (LIM domain kinase 1): > 63.1 µM (inactive)
Ki [36]: > 79.4 µM (inactive)
Ki [37]: > 100 µM (inactive)
Ki [38]: 50.1 µM (active)
Ki [39]: > 63.1 µM (inactive)
Ki (Aurora kinase B): > 79.4 µM (inactive)

O=C1NCc2ccc(-c3ccc(Cl)cc3)cc21
Ki [9]: 63.1 µM (active)
Ki [10]: 63.1 µM (active)
Ki [40]: 63.1 µM (active)
Ki [41]: 50.1 µM (active)
Ki [42]: 63.1 µM (active)

Nc1cc(Nc2ccc(O)c(CNC(=O)C(F)(F)F)c2)ncn1
Ki [13]: 0.794 µM (active)
Ki [18]: 1.26 µM (active)
Ki [43]: 1.58 µM (active)
